Measurements published in patent US6900195B2, “Manzamines for treatment of drug resistant infection” (The University of Mississippi, priority 2000, dated 2005).
Values after ≈ are worked out from the molar mass of the structure shown. Read-outs that look alike come from different tables or passages of the source.

Columns and labels:
[1] = system: M. tuberculosis (H37Rv); assay: microbe, parasite or virus in culture; format: cell-based, Mycobacterium tuberculosis
[2] = system: P. berghei N strain; assay: Oral antimalarial activity against P. berghei N strain; format: in vivo, Plasmodium berghei; details: orally in DMSO, preliminary results
[3] = Cytotoxicity of microbial metabolites versus parent compounds (cells not stated); format: cell-based
[4] = system: Vero cells; details: African green monkey, 48 h
[5] = system: P. berghei; assay: In vivo antimalarial activity in P. berghei-infected mice; parameters: species or system Plasmodium berghei; details: for reduction of parasitemia: single i.p. 100 μmoles/kg, comparison 2 days after treatment
Experimental: In Vivo Evaluation of Antimalarial Activity. (National University of Singapore by Dr. Kenny Ang, confirmation of activity at the WHO). Four-week-old, male Swiss albino mice are injected intraperitoneally with 10^7 P. berghei-infected mouse erythrocytes. On day 2 after infection, mice are treated with a single intraperitoneal injection of either the test compound or a reference drug (chloroquine or artemisinin) within a concentration range of 50 to 1,000 μmol/kg of body weight. All test compounds and reference drugs were injected as a suspension in 5% Tween 60 saline. For oral administration, the test compounds are given as a suspension in corn oil, and mice are given two consecutive doses of test compound at 100 μmol/kg on days 2 and 3 after infection. […] Control mice receive only 5% Tween 60 saline or corn oil. Survival of mice was recorded daily. Percent parasitemia is determined microscopically (magnification, ×1,000) from mouse-tail blood smears that were fixed with methanol and stained with Giemsa stain. Blood samples from individual P. berghei-infected mice were collected at various times after a single intraperitoneal treatment of 100 μmol/kg of manzamine A per kg on day 3 after infection. For transmission electron microscopy, approximately 0.5-ml blood samples are fixed with 3% glutaraldehyde in 0.1 M cacodylate buffer (pH 7.4), postfixed with 1% osmium tetroxide and 1% uranyl acetate, dehydrated in a graded ethanol series, and embedded in Spurr's resin. The resulting blocks are cut by using a Reichert-Jung Ultracut with a glass knife. Ultra thin sections were mounted on 150-mesh copper grids, stained with 1% uranyl acetate and 1% lead citrate, and examined with a JEM-100CX electron microscope. Manzamine in plasma was detected by liquid chromatography=selected reaction monitoring-mass spectrometry (LC-SRM-MS). P. berghei-infected mice will be treated with the alkaloid (100 μmol/kg intraperitoneally) on day 3 post infection. Blood samples are collected from individual mice at specific times up to 48 h posttreatment. Plasma was isolated by centrifugation and extracted with 95% acetonitrile containing 5 mM ammonium acetate. The plasma extract was filtered, and 5 μl samples are injected into a Shimadzu LC-10 AD microbore high-pressure liquid chromatograph interfaced with a Perkin-Elmer API 300 turbo-ion-spray tandem mass spectrometer. Samples are separated on a Prodigy C-18 column (30 by 1 mm, 5-μm inner diameter) by elution at 50 μl/min with 86% acetonitrile containing 5 mM ammonium acetate. Manzamine can be detected by monitoring the transition of the protonated manzamine precursor ion from the (M+H)^+ to the (M+H —H2O)^+. Peak areas for the product ion chromatograms are integrated, and concentrations are determined from a linear calibration curve for manzamine in spiked plasma. The limit of detection for the manzamines in plasma by LC-SRM-MS is 2.5 pg. Results are subjected to a nonparametric statistical assessment with a confidence interval of 99% (p<0.01) by using Analyse-it software linked to Microsoft Excel. The program uses the Mann-Whitney U test to determine significant differences between two groups of data.

[6] = system: P. falciparum D6 clone (Sierra Leone, chloroquine-sensitive); assay: In vitro antimalarial activity, parasite LDH assay, D6 clone; format: cell-based, Plasmodium falciparum; details: for IC50: Plasmodium falciparum
[7] = system: P. falciparum W2 clone (Indochina, chloroquine-resistant); assay: In vitro antimalarial activity, parasite LDH assay, W2 clone; format: cell-based, Plasmodium falciparum; details: for IC50: Plasmodium falciparum
[8] = system: Vero cells; assay: In vitro cytotoxicity to mammalian cells (neutral red)
[9] = system: human PBM cells; assay: Cytotoxicity in human PBM cells; details: read-out: Cytotoxicity in human PBM cells IC50
[10] = system: HIV-1 in human PBM cells; assay: Anti-HIV activity in human PBM cells; format: cell-based
[11] = system: T. gondii (C56 strain); assay: Survival of mice infected orally with T. gondii cysts; format: in vivo, Toxoplasma gondii
Excerpt: Toxoplasma gondii. […] Untreated infected mice in the control group started dying 10 days post infection. Mice treated with manzamine A died nine days after treatment stopped. […] FIGS. 1 and 2 provide the graphic results of this experiment. […] Treatment was begun on Day 1 following in infection and continued for 8 days.

[12] = system: P. berghei; assay: In vivo antimalarial activity in P. berghei-infected mice; parameters: species or system Plasmodium berghei; details: three 50 μmoles/kg i.p. doses
[13] = system: Plasmodium yoelii NS malaria strain; assay: WHO Peters 4-day assay, Plasmodium yoelii NS in mice; format: in vivo
Excerpt: To confirm the activity of the manzamines against malaria the World Health Organization examined manzamine A against the Plasmodium yoelii NS malaria strain in mice (Peters 4-day assay-Handbook of Animal Models of Infection Chapter 92, Academic Press 1999).

[14] = Cytotoxicity in human PBM cells; details: human
[15] = Cytotoxicity against human lung and colon carcinoma cells; format: cell-based
[16] = system: P-388 mouse lymphoma cells; details: cited from earlier work
[17] = system: P-388 mouse lymphoma cells; assay: Cytotoxicity against P-388 mouse lymphoma cells; format: cell-based
[18] = system: human lung and colon carcinoma cells; details: cited from earlier work
[19] = M. tuberculosis H37Rv, test concentration not given
[20] = Mycobacterium tuberculosis, M. tuberculosis H37Rv, read-out: MIC
[21] = P. berghei-infected mice, single i.p. dose 100 μmoles/kg
[22] = P. falciparum W2 clone, read-out: W2 Clone IC50

8,12-di-O-acetyl ent-8-hydroxymanzamine A [ent-8-Hydroxymanzamine A diAc]
MIC ([1]; M. tuberculosis H37Rv): <6.25 µg/mL | % Inhibition [1, 19]: 95%

8-hydroxymanzamine
ED50 [2]: < 10 mg/kg

15,16,32,33-tetrahydro-ent-8-hydroxymanzamine A
MIC ([1]; M. tuberculosis H37Rv): <6.25 µg/mL | % Inhibition [1, 19]: 100%

O[C@]12C=C(c3nccc4c3[nH]c3ccccc34)C3CCN(CCCC/C=C\CC1)C[C@@]31C[C@]34CC[C@H](CCCN3[C@H]12)O4 (some centres unmarked) [6-Deoxymanzamine X, 6-deoxymanzamine X]
MIC ([1]; M. tuberculosis H37Rv): <12.5 µg/mL | % Inhibition [1, 19]: 98%

O=C1CCCN2[C@H]3[C@]45CN6CCCC/C=C\CC[C@]3(C=C(c3nccc7c3[nH]c3c(O)cccc37)[C@H]4CC6)O[C@@]2(CC1)C5 [8-HOMA Metabolite 1]
cytotoxicity relative to the parent compounds [3]: less cytotoxic than the parent compounds | % Inhibition [1, 19]: 98% | MIC [1, 20]: < 12.5 µg/mL

C[C@@H]1CC[C@H]2[C@@H](C)C(=O)O[C@@H]3O[C@@]4(C)CC[C@@H]1[C@]32OO4 [Artemisinin, artemisinin, reference compound]
Cytotoxicity TC50 [4]: >5,000 ng/mL | average survival days [5, 21]: 2 to 3 days | IC50 ([6]; P. falciparum D6 clone, read-out: D6 Clone IC50): 0.01 µg/mL (≈ 0.0354 µM) | IC50 [7, 22]: 0.0063 µg/mL (≈ 0.0223 µM)

CCN(CC)CCCC(C)Nc1ccnc2cc(Cl)ccc12 (centres unmarked) [Chloroquine, chloroquine, reference compound]
reduction of parasitemia ([5]; P. berghei-infected mice): comparable reduction of parasitemia | average survival days ([5]; in vivo, ip): 6 days | Cytotoxicity TC50 [8]: >5,000 ng/mL | IC50 ([6]; D6, read-out: D6 Clone IC50): 0.0155 µg/mL (≈ 0.0485 µM) | IC50 [7, 22]: 0.17 µg/mL (≈ 0.531 µM)

O=CC1=C[C@@]2(O)CC/C=C\CCCCN3CC[C@@H]1[C@]1(CC4/C=C\CCCCN4[C@H]12)C3 (some centres unmarked) [Ircinal A]
cytotoxicity relative to the parent compounds [3]: less cytotoxic than the parent compounds | activity in vivo against malaria ([5]; mice): failed to show any activity in vivo against malaria | IC50 [9]: 34.2 µM | EC50 ([10]; human PBM cells): 45.2 µM | MIC ([1]; M. tuberculosis H37Rv): <12.5 µg/mL | % Inhibition [1, 19]: 98%

O[C@]12C=C(c3nccc4c3[nH]c3ccccc34)[C@@H]3CCN(CCCC/C=C\CC1)C[C@@]31C[C@@H]3/C=C\CCCCN3[C@@H]12 [Manzamine A]
time of death after treatment stopped ([11]; 8 mg/kg i.p. once a day for 8 days): nine | signs or behavior during treatment ([11]; 8 mg/kg i.p. once a day for 8 days (paralysis, blindness, twirling)): no uncommon signs or behavior | survival at day 16 of infection ([11]; 8 mg/kg i.p. once a day for 8 days, all control mice had died by day 16): all the manzamine A treated mice were alive | time to death ([11]; SW mice, 10 cysts C56 orally, 8 mg/kg i.p. once a day for 8 days from day 1): significant prolongation of time to death | outcome after three doses [12]: curative and totally clears the parasite | reduction of parasitemia ([5]; P. berghei-infected mice): comparable reduction of parasitemia | reduction of parasitemia compared with control mice ([5]; P. berghei-infected mice, two oral doses 100 μmoles/kg): 90% | in vivo activity against P. berghei relative to chloroquine or artemisinin ([5]; mice): in vivo activity against P. berghei greater than chloroquine or artemisinin | ED50 ([13]; Plasmodium yoelii, 96 h): < 5 mg/kg | activity relative to Na artesunate ([13]; given orally in DMSO or carboxy-methylcellulose-based formulation): more active than Na artesunate | IC50 [14]: 5.1 µM | Cytotoxicity TC50 [8]: 290 ng/mL | EC50 ([10]; Human immunodeficiency virus 1, PBMC): 12.9 µM | % Inhibition [1, 19]: 99% | MIC [1, 20]: 1.56 µg/mL (≈ 2.84 µM) | IC50 ([6]; D6, read-out: D6 Clone IC50): 0.0045 µg/mL (≈ 0.0082 µM) | Selectivity index (SI), D6 clone ([6]; Vero TC50 relative to D6 IC50): SI = 64 | IC50 ([7]; W2, read-out: W2 Clone IC50): 0.008 µg/mL (≈ 0.0146 µM) | Selectivity index (SI), W2 clone ([7]; Vero TC50 relative to W2 IC50): SI = 36

O=C1CCCN2[C@@H](CC1)C[C@]13CN4CCCC/C=C\CC[C@](O)(C=C(c5nccc6c5[nH]c5ccccc56)[C@@H]1CC4)[C@H]23 [Manzamine E]
IC50 [9]: 35.5 µM | EC50 ([10]; human PBM cells): 18.7 µM | MIC ([1]; M. tuberculosis H37Rv): 3.13 µg/mL (≈ 5.54 µM) | % Inhibition [1, 19]: 99%

O[C@]12C=C(c3nccc4c3[nH]c3ccccc34)[C@@H]3CCN(CCCC/C=C\CC1)C[C@@]31CC/C=C\CCCCN[C@@H]12 [Manzamine J]
% Inhibition [1, 19]: 99% | MIC [1, 20]: < 12.5 µg/mL

CO[C@H]1/C=C/O[C@@]2(C)Oc3c(C)c(O)c4c(O)c(c(/C=N/N5CCN(C)CC5)c(O)c4c3C2=O)NC(=O)/C(C)=C\C=C\[C@H](C)[C@H](O)[C@@H](C)[C@@H](O)[C@@H](C)[C@H](OC(C)=O)[C@@H]1C [Rifampin, reference compound]
% Inhibition [1]: 100% | MIC ([1]; Mycobacterium tuberculosis, H37RV): 0.25 µg/mL (≈ 0.304 µM)

O=C1CCCN2[C@@H](CC1)C[C@]13CN4CCCC/C=C\CC[C@](O)(C=C(c5nccc6c5[nH]c5c(O)cccc56)C1CC4)[C@H]23 (stereo partly drawn) [ent-Manzamine F, ent-manzamine F]
IC50 [9]: 40.8 µM | EC50 ([10]; human PBM cells): 94.8 µM | MIC ([1]; M. tuberculosis H37Rv): >12.5 µg/mL

O[C@@H]1CCCN2CC[C@@H]1O[C@@]13CC[C@@H](OC[C@]45CN6CCCC/C=C\CC[C@](O)(C=C(c7nccc8c7[nH]c7ccccc78)[C@@H]4CC6)[C@H]25)[C@@H](O)CCN1[C@@H]1[C@]2(CN4CCCC/C=C\CC[C@]1(O)C=C(c1nccc5c1[nH]c1ccccc15)[C@@H]2CC4)C3 [neo-Kauluamine, neo-kauluamine]
IC50 [15]: 1 µg/mL (≈ 0.859 µM) | % Inhibition [1, 19]: 44% | MIC [1, 20]: > 12.5 µg/mL

(+)-8-Hydroxymanzamine A
cytotoxicity, reported [16]: inactive | Cytotoxicity TC50 [8]: 320 ng/mL | MIC ([1]; M. tuberculosis H37Rv): <6.25 µg/mL | % Inhibition [1, 19]: 100% | D6 Clone IC50 ([6]; P. falciparum D6 clone): 0.006 µg/mL | W2 Clone IC50 ([7]; P. falciparum W2 clone): 0.008 µg/mL

(−)-12, 34-Oxamanzamine F
IC50 [9]: 75.2 µM | EC50 ([10]; human PBM cells): 20.4 µM

Manzamine L
MIC ([1]; M. tuberculosis H37Rv): <12.5 µg/mL | % Inhibition [1, 19]: 99%

ent-8-hydroxy-manzamine A [ent-8-Hydroxymanzamine A]
reduction of parasitemia ([5]; P. berghei-infected mice): efficiently reduced parasitemia | average survival days [5, 21]: 9 to 11 days | in vivo activity against P. berghei relative to chloroquine or artemisinin ([5]; mice): in vivo activity against P. berghei greater than chloroquine or artemisinin | IC50 [9]: 4.9 µM | EC50 ([10]; human PBM cells): 44.2 µM | cytotoxicity IC50 [17]: 0.25 µg/mL | MIC ([1]; M. tuberculosis H37Rv): 3.13 µg/mL | % Inhibition [1, 19]: 99%

kauluamine
cytotoxicity [18]: inactive
